From the supplement of paper PMC10307832

How the values were obtained:
Experiment in all cases: relative viability (nuclei count vs DMSO), 5 days (fraction); higher = more cells survive
AGI-6780 + Lapatinib = compound: O=C(Nc1cccc(C(F)(F)F)c1)Nc1cc(S(=O)(=O)NC2CC2)ccc1-c1ccsc1 [AGI-6780] + CS(=O)(=O)CCNCc1ccc(-c2ccc3ncnc(Nc4ccc(OCc5cccc(F)c5)c(Cl)c4)c3c2)o1 [Lapatinib] (partner 2 µM)
Summary of the method: (§1)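 The day after seeding in 1536-well plates, lung cancer cell lines were treated by pin tool with a single drug, or with a fixed anchor-drug dose together with five library-drug doses (not always all listed) in √10 steps. After 5 days, a combined fix-and-stain solution (final 0.05% Triton X-100, 1% formaldehyde, 1 ug/ml Hoechst) was added. Nuclei counted on 4× images gave relative viability as treated counts over vehicle counts, reported as the median of duplicate plates.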

AGI-6780 + Crizotinib = compound: O=C(Nc1cccc(C(F)(F)F)c1)Nc1cc(S(=O)(=O)NC2CC2)ccc1-c1ccsc1 [AGI-6780] + C[C@@H](Oc1cc(-c2cnn(C3CCNCC3)c2)cnc1N)c1c(Cl)ccc(F)c1Cl [Crizotinib] (partner 1 µM)
Summary of the method: as §1

AGI-6780 + Tozasertib = compound: O=C(Nc1cccc(C(F)(F)F)c1)Nc1cc(S(=O)(=O)NC2CC2)ccc1-c1ccsc1 [AGI-6780] + Cc1cc(Nc2cc(N3CCN(C)CC3)nc(Sc3ccc(NC(=O)C4CC4)cc3)n2)n[nH]1 [Tozasertib] (partner 0.1 µM)
Summary of the method: as §1

AGI-6780 + Decitabine = compound: O=C(Nc1cccc(C(F)(F)F)c1)Nc1cc(S(=O)(=O)NC2CC2)ccc1-c1ccsc1 [AGI-6780] + Nc1ncn([C@H]2C[C@H](O)[C@@H](CO)O2)c(=O)n1 [Decitabine] (partner 2 µM)
Summary of the method: as §1

Row | Cell Line | relative viability (AGI-6780 + Lapatinib; first compound 0.08 µM) | relative viability (AGI-6780 + Lapatinib; first compound 0.253 µM) | relative viability (AGI-6780 + Lapatinib; first compound 0.8 µM) | relative viability (AGI-6780 + Lapatinib; first compound 2.53 µM) | relative viability (AGI-6780 + Lapatinib; first compound 8 µM) | relative viability (AGI-6780 + Crizotinib; first compound 0.08 µM) | relative viability (AGI-6780 + Crizotinib; first compound 0.253 µM) | relative viability (AGI-6780 + Crizotinib; first compound 0.8 µM) | relative viability (AGI-6780 + Crizotinib; first compound 2.53 µM) | relative viability (AGI-6780 + Crizotinib; first compound 8 µM) | relative viability (AGI-6780 + Tozasertib; first compound 0.08 µM) | relative viability (AGI-6780 + Tozasertib; first compound 0.253 µM) | relative viability (AGI-6780 + Tozasertib; first compound 0.8 µM) | relative viability (AGI-6780 + Tozasertib; first compound 2.53 µM) | relative viability (AGI-6780 + Tozasertib; first compound 8 µM) | relative viability (AGI-6780 + Decitabine; first compound 0.08 µM) | relative viability (AGI-6780 + Decitabine; first compound 0.253 µM) | relative viability (AGI-6780 + Decitabine; first compound 0.8 µM) | relative viability (AGI-6780 + Decitabine; first compound 2.53 µM) | relative viability (AGI-6780 + Decitabine; first compound 8 µM)
1 | LC-2-ad | 0.943 | 1.04 | 0.979 | 1.02 | 0.958 | 0.579 | 0.491 | 0.467 | 0.412 | 0.508 | 0.433 | 0.477 | 0.447 | 0.327 | 0.468 | 0.835 | 0.804 | 0.791 | 0.868 | 0.793
2 | LCLC-97TM1 | 0.803 | 1.61 | 1.14 | – | 1 | 0.417 | 0.48 | 0.668 | – | 0.344 | 0.217 | 0.265 | 0.291 | 0.195 | 0.197 | 0.221 | 0.219 | 0.304 | 0.19 | 0.231
3 | LK-2 | 0.867 | 0.951 | 1.14 | – | 0.958 | 0.262 | 0.209 | 0.271 | – | 0.211 | 0.178 | 0.16 | 0.147 | – | 0.162 | 0.282 | 0.402 | 0.322 | – | 0.477
4 | LOU-NH91 | 0.773 | 0.836 | 0.78 | 0.587 | 0.737 | 0.753 | 0.764 | 0.712 | 0.705 | 0.715 | 0.725 | 0.642 | 0.63 | 0.583 | 0.64 | 0.834 | 0.811 | 0.803 | 0.826 | 0.802
5 | LU99A | 1.12 | 0.98 | 0.976 | 0.825 | 1.03 | 0.606 | 0.484 | 0.627 | 0.473 | 0.669 | 0.237 | 0.275 | 0.294 | 0.237 | 0.299 | 0.889 | 1.09 | 0.903 | 0.805 | 0.988
6 | LXF-289 | 0.903 | 0.897 | 0.906 | 0.936 | 0.831 | 0.84 | 0.798 | 0.795 | 0.83 | 0.771 | 0.201 | 0.225 | 0.152 | 0.131 | 0.25 | 0.33 | 0.393 | 0.358 | 0.311 | 0.366
7 | NCI-H23 | 1.17 | 1.26 | 1.45 | 0.931 | 1.15 | 0.56 | 0.633 | 0.629 | 0.539 | 0.544 | 0.347 | 0.365 | 0.35 | 0.379 | 0.343 | 0.3 | 0.327 | 0.285 | 0.294 | 0.313
8 | NCI-H322M | 0.638 | 0.57 | 0.608 | 0.552 | 0.626 | 0.785 | 0.861 | 1.02 | 0.986 | 0.858 | 0.517 | 0.508 | 0.493 | 0.425 | 0.515 | – | 0.799 | 0.68 | 0.612 | 0.708
9 | NCI-H358 | 0.517 | 0.6 | 0.473 | 0.375 | 0.417 | 0.76 | 0.566 | 0.573 | 0.528 | 0.471 | 0.11 | 0.108 | 0.112 | 0.105 | 0.11 | 0.219 | 0.242 | 0.208 | 0.184 | 0.194
10 | NCI-H460 | 0.872 | 1.03 | 1.03 | 1.07 | 1.11 | 0.912 | 0.963 | 1.19 | 0.759 | 1.06 | 0.537 | 0.453 | 0.491 | 0.349 | 0.176 | 0.547 | 0.453 | 0.552 | 0.446 | 0.512
11 | NCI-H520 | 0.913 | 0.983 | 0.981 | 0.775 | 0.968 | 0.936 | 0.729 | 1.12 | 0.753 | 0.774 | 0.486 | 0.441 | 0.426 | 0.327 | 0.446 | 0.599 | 0.482 | 0.434 | 0.392 | 0.467
12 | NCI-H596 | 0.841 | 1.13 | 1.05 | 0.886 | 1.08 | 0.928 | 1 | 0.912 | 0.773 | 1.03 | 0.839 | 0.898 | 0.725 | – | 0.983 | 1.65 | 0.981 | 0.991 | 0.73 | 0.924
13 | NCI-H647 | 0.919 | 1.18 | 1.06 | 0.955 | 1.3 | 1.1 | 1.13 | 1.38 | 0.96 | 1.15 | 0.299 | 0.302 | 0.37 | 0.181 | 0.281 | 0.438 | 0.478 | 0.411 | 0.297 | 0.401
14 | NCI-H650 | 0.922 | 1.07 | 1.17 | 0.859 | 1.05 | 0.833 | 0.673 | 0.737 | 0.601 | 0.641 | 0.749 | 0.747 | 0.72 | 0.642 | 0.7 | 0.288 | 0.296 | 0.377 | 0.33 | 0.296
